The source of these data is patent US8927498B2, “Compositions and methods useful in enhancement of memory” (The Translational Genomics Research Institute, priority 2010, dated 2015).

The test system of experiment [1] is seventeen-month-old Fischer-344 male rats (aged rat model of cognitive decline). Briefly: water-escape radial arm maze, spatial working memory. Particulars: 17-month-old Fischer-344 male rats, 1 mg/kg/day, vs vehicle (saline). Type of experiment: in vivo. The protocol:
In one embodiment of the present disclosed invention, the transduction complex comprises a fusion peptide including a TAT protein transduction domain and residues surrounding two known serine phosphorylation targets (Ser159 and Ser163) within MARCKS (SEQ ID NO: 3). The compound was administered to seventeen-month-old rats and behavioral spatial working memory of the rats was assessed by behavior testing. […] Such assays include, without limitation, the Morris water maze and the radial arm water maze, plus maze. For example, when employing the Morris water maze, a rat is trained to swim to a submerged platform. The rat can then be treated with an agent at a particular dose for a particular duration. Following treatment, the mean escape latency (i.e., time to find platform) is measured and compared to the mean escape latency of a control. […] Following treatment, the ability of the rat to remember a newly-learned path is measured and compared to that of a control. […] In the water Plus Maze test, the variables measured include the percentage of time spent in the open and closed areas of the maze, the latency to leave the central platform, the total number of crossings between the various open and closed areas of the maze, and the number of crossings into the open areas of the maze divided by the total number of crossings. […]

Experiment [2] has as its system hippocampal expression of candidate genes. Briefly: hippocampal expression of candidate genes, Illumina RatRef-12 expression BeadChip. In kind it is in vivo, rat. The text has this:
Following sacrifice, the left hippocampus was utilized for genome-wide expression profiling. […] These included Adcyap1 with fold change (FC) of 1.5, and p=0.029, Tiam1 with FC of −1.5 and p=0.028, and Filip1 with FC of −1.75 and p=0.032 (Table 1). The RT-PCR validation of the fold change of FILIP1 and Tiam1 is shown in Table 2 and Table 3, respectively.

Setting [3] is: hippocampus, treated vs. vehicle rats, Mann-Whitney.
The mark [4] stands for this setting: hippocampus, treated vs. vehicle rats, T-Test.
[5] abbreviates: left hippocampus, genome-wide expression profiling.

Entries after “also recorded” stand apart in the source; their conditions may differ.

With “SEQ ID NO: 1: fusion peptide including a TAT protein transduction domain and residues surrounding two known serine phosphorylation targets (Ser159 and Ser163) within MARCKS (YGRKKRRQRRRCKRFSFKKSFKLSGFSFKK; TAT MARCKS fusion)”, the “working memory performance in water-escape radial arm maze” value in experiment [1] (n=9) was “better able to process multiple items of information; also recorded: enhanced working memory performance”. The “working memory performance in water-escape radial arm maze” value in experiment [1] (n=9, listed as MARCKS peptide decoy) is given as “better performance in the radial arm water maze”. Further, in experiment [2] (setting [3]), the “Fold Change Filip1” value is listed as −1.747, the “Fold Change Gna1” value is given as −1.534, the “Fold Change Ptpro” value is −1.708 and the “Fold Change Tiam1” value is −1.510. Moreover, the “Fold Change Tp53i11_predicted” value in experiment [2] (setting [3]) is listed as −1.581. Besides, in experiment [2] (setting [4]), the “Fold Change Adcyap1” value was 1.554, the “Fold Change Filip1” value is on record as −1.747, the “Fold Change LOC501145” value was 1.566 and the “Fold Change Perp_predicted” value is on record as −1.647. In addition, in experiment [2] (setting [4]), the “Fold Change Tiam1” value is −1.499 and the “Fold Change Tp53i11_predicted” value is listed as −1.554. For the same substance, in experiment [2] (setting [5]), the “fold change (FC) Adcyap1” value stood at 1.5, the “fold change (FC) Filip1” value is reported as −1.75 and the “fold change (FC) Tiam1” value is reported as −1.5.
